Measurements published in patent US4329426A, “Process for preparation of antibiotics and biologically pure culture for use therein” (Kowa Company, Ltd., priority 1978, dated 1982).

Legend:
Acute toxicity in mice = assay type: in vivo; settings: mouse, in vivo
Solubility = assay type: physicochemical
mice = assay: Acute toxicity in mice; assay type: in vivo

Compound | LD50 (Acute toxicity in mice; iv.) [mg/kg] | LD50 (Acute toxicity in mice; sc.) [mg/kg] | Solubility in acetone (Solubility) | Solubility in chloroform, ethyl acetate, diethyl ether, hexane and petroleum ether (Solubility) | Solubility in ethanol (Solubility) | Solubility in methanol (Solubility) | Solubility in water (Solubility) | LD50 (mice; iv.) [mg/kg] | LD50 (mice; sc.) [mg/kg]
CNCC1CCC(N)C(OC2C(N)CC(OC)C(NC)C2O)O1 (stereo not drawn) [KA-7038 III] | > 300 | > 600 | slightly soluble | Insoluble | little soluble | Easily soluble | Very readily soluble | – | –
CNC1C(O)CC(N)C(OC2OC(CN)CCC2N)C1O (stereo not drawn) [KA-7038 II] | > 300 | > 600 | slightly soluble | Insoluble | little soluble | Easily soluble | Very readily soluble | – | –
CNC1C(O)C(OC2OC(CN)CCC2N)C(N)C(O)C1OC (stereo not drawn) [KA-7038 IV] | > 300 | > 600 | slightly soluble | Insoluble | little soluble | Easily soluble | Very readily soluble | – | –
CNCC1CCC(N)C(OC2C(N)CC(OC)C(N(C)C(=O)CN)C2O)O1 (stereo not drawn) [KA-7038 I] | > 100 | > 400 | sightly soluble | Insoluble | little soluble | Easily soluble | Very readily soluble | – | –
CNCC1CCC(N)C(OC2C(N)CC(OC)C(NC)C2O)O1 (stereo not drawn) [KA-7038 VI] | – | – | slightly soluble | Insoluble | little soluble | Easily soluble | Very readily soluble | > 300 | > 600
CNC1C(OC)CC(N)C(OC2OC(CN)CCC2N)C1O (stereo not drawn) [KA-7038 V] | > 300 | > 600 | slightly soluble | Insoluble | little soluble | Easily soluble | Very readily soluble | – | –
